# Experiments:
# Format in all cases: physicochemical
# [1] = Dissolution tests of powder mixtures of FFA-NIC cocrystal with polymers in PBS pH 4.5 (non-sink); conditions: for incongruent indicator k(t) (molar FFA/NIC in solution): PBS pH 4.5, neat cocrystal; for FFA DPP: reference neat cocrystal in PBS pH 4.5
# Procedure: Similarly, in vitro dissolution tests of the powder mixtures of 71.7 mg of the FFA-NIC cocrystals with an individual polymer or a combination in PBS pH 4.5 or PBS pH 6.8 were conducted in triplicate. […], 400 mg of PEG, […], corresponding to their predissolved concentrations used in Section "Dissolution Tests of FFA, the Neat FFA-TP Cocrystal or FFA-NIC Cocrystal Powders in DDW in the Absence and Presence of a Predissolved Polymer or a Combination".
# The solid residues obtained from the experiments in PBS pH 4.5 were dried at room temperature and analysed by PXRD.
# (§1) DPP was used to evaluate the dissolution profile of the test powders in comparison to a reference system, which is defined as,4 DPP=AUCC(t)-AUCCR(t)/AUCCR(t)×100% where AUCC(t) is the area under the curve (AUC) of a dissolution profile C(t) , indicating the amount of drug dissolved is maintained over the period of the dissolution time from 0 to t, and AUCCR(t) is the AUC of a reference dissolution profile CR(t) .
# (§2) The solids were scanned by D2 phaser diffractometer (Bruker U.K. Limited, Coventry, UK) with […] radiation operating at voltage of 30 kV and current of 10 mA. The scanning angle ranged from 2°-40° of 2θ. The scanning time per step was 0.4 s. The scan step size was 0.02° of 2θ.
# [2] = Dissolution tests of powders in DDW with predissolved polymer or combination (USP type II paddle); conditions: for incongruent indicator k(t) (molar FFA/NIC in solution): neat cocrystal
# Procedure: In vitro dissolution tests were performed with a USP type II paddle apparatus (DT 126 light, Erweka GmbH, Germany) at 37 ± 0.5°C with a paddle speed of 50 rpm in 400 mL of DDW in the absence and presence of a predissolved polymer (i.e., 0.2 mg/mL of PVP-VA, 1 mg/mL of PEG, 0.2 mg/mL of SLP) or a combination of two polymers (i.e., 0.2 mg/mL PVP-VA + 1 mg/mL PEG, […]).
# 71.7 mg of FFA-NIC cocrystal powders with the equivalent of 50 mg FFA I powders were used in each of the dissolution tests. Samples of 1 ± 0.1 mL were withdrawn from the dissolution vessel at the predefined time points of 5, 10, 15, 30, 60, 120, 180 and 240 min. The supernatant of each of the samples was separated from the excess solids by centrifugation at 13,000 RPM for 1 min in an MSE Micro Centaur. HPLC was used to determine the concentrations of FFA and NIC in solution. Solid residues obtained from the experiments were dried at room temperature and analysed by PXRD. All experiments were repeated in triplicate.
# For comparison, the above dissolution tests were also repeated using 50 mg of pure FFA I powders and 82.0 mg of FFA-TP cocrystal powders.
# as §1, §2
# [3] = Dissolution tests of powder mixtures of FFA-NIC cocrystal with polymers in PBS pH 6.8 (sink); conditions: for FFA DPP: reference neat cocrystal in PBS pH 6.8; for incongruent indicator k(t) (molar FFA/NIC in solution): PBS pH 6.8, sink conditions
# Procedure: Similarly, in vitro dissolution tests of the powder mixtures of 71.7 mg of the FFA-NIC cocrystals with an individual polymer or a combination in PBS pH 4.5 or PBS pH 6.8 were conducted in triplicate. The amount of a polymer used in the powder mixture was 80 mg of PVP-VA, 400 mg of PEG, or 80 mg of SLP, corresponding to their predissolved concentrations used in Section "Dissolution Tests of FFA, the Neat FFA-TP Cocrystal or FFA-NIC Cocrystal Powders in DDW in the Absence and Presence of a Predissolved Polymer or a Combination".
# as §1
# [4] = DDW, combination of predissolved PVP-VA and PEG
# [5] = DDW, no polymer, powder dissolution
compound,measurement,setting,value
NC(=O)c1cccnc1.O=C(O)c1ccccc1Nc1cccc(C(F)(F)F)c1 [FFA-NIC cocrystal],solid residues after dissolution tests (PXRD),"[1]; PBS pH 4.5, groups SLP (0.1 mg/mL) + PVP-VA (0.4 mg/mL) and SLP (0.2 mg/mL) + PVP-VA (0.8 mg/mL)",FFA-NIC cocrystals were also found in the solid residues
same,incongruent indicator k(t) (molar FFA/NIC in solution),[1]; at 5 min,0.03
same,incongruent indicator k(t) (molar FFA/NIC in solution),[1]; at 60 min,0.07
same,FFA DPP,"[1]; PBS pH 4.5, powder mixture with PEG (1 mg/mL) + PVP-VA (0.2 mg/mL)",36%
same,FFA DPP,"[1]; PBS pH 4.5, powder mixture with PEG (1 mg/mL)",11%
same,FFA concentration at the end of the test,"[1]; PBS pH 4.5, powder mixture with PVP-VA",17.38 µg/mL
same,FFA DPP,"[1]; PBS pH 4.5, powder mixture with PVP-VA (0.2 mg/mL)",92%
same,maximum supersaturated FFA concentration,"[1]; PBS pH 4.5, powder mixture with PVP-VA, at 60 min",19.65 µg/mL
same,FFA DPP,"[1]; PBS pH 4.5, powder mixture with SLP (0.1 mg/mL) + PVP-VA (0.4 mg/mL)",150%
same,FFA DPP,"[1]; PBS pH 4.5, powder mixture with SLP (0.2 mg/mL) + PVP-VA (0.2 mg/mL)",159%
same,FFA DPP,"[1]; PBS pH 4.5, powder mixture with SLP (0.2 mg/mL) + PVP-VA (0.4 mg/mL)",179%
same,FFA DPP,"[1]; PBS pH 4.5, powder mixture with SLP (0.2 mg/mL) + PVP-VA (0.8 mg/mL)",204%
same,FFA DPP,"[1]; PBS pH 4.5, powder mixture with SLP (0.2 mg/mL)",2%
same,solid residues after dissolution tests (PXRD),[1]; all dissolution tests in PBS pH 4.5,FFA III solids were crystallised
same,solid residues after dissolution tests (PXRD),[2]; DDW in the absence or presence of predissolved polymers,FFA III
same,FFA concentration at 240 min,[2]; [4],11.44 µg/mL
same,maximum FFA concentration,[2]; [4],14.28 µg/mL
same,time to generate supersaturated state of FFA concentration,[2]; [4],≤ 5 min
same,solid residues after dissolution tests (PXRD),"[2]; DDW, combinations of predissolved PVP-VA and SLP at various concentrations except SLP (0.2 mg/mL) + PVP-VA (0.8 mg/mL)",FFA III alone
same,incongruent indicator k(t) (molar FFA/NIC in solution),"[2]; DDW, at 5 min",0.06
same,incongruent indicator k(t) (molar FFA/NIC in solution),"[2]; DDW, at 60 min",0.08
same,FFA concentration reached within 60 min,[2]; [5],10.23 µg/mL
same,"FFA concentration, constant level after 60 min",[2]; [5],10.78 µg/mL
same,time for FFA concentration to reach aqueous equilibrium solubility,"[2]; DDW, predissolved 0.2 mg/mL PVP-VA",≤ 15 min
same,maximum FFA concentration,"[2]; DDW, predissolved 0.2 mg/mL PVP-VA, at 60 min",12.93 µg/mL
same,FFA DPP (dissolution performance parameter),"[2]; DDW, predissolved PEG (1 mg/mL), 0-4 h, reference same powder in DDW",-7%
same,FFA DPP (dissolution performance parameter),"[2]; DDW, predissolved PVP-VA (0.2 mg/mL), 0-4 h, reference same powder in DDW",19%
same,NIC release from cocrystal powders,"[2]; DDW, predissolved PVP-VA or its combination with PEG or SLP",released completely
same,FFA concentration in solution after 4 h,"[2]; DDW, predissolved SLP (0.2 mg/mL)",26.18 µg/mL
same,FFA DPP (dissolution performance parameter),"[2]; DDW, predissolved SLP (0.2 mg/mL) + PVP-VA (0.1 mg/mL), reference DDW",112%
same,FFA DPP (dissolution performance parameter),"[2]; DDW, predissolved SLP (0.2 mg/mL) + PVP-VA (0.2 mg/mL), 0-4 h, reference same powder in DDW",160%
same,FFA DPP (dissolution performance parameter),"[2]; DDW, predissolved SLP (0.2 mg/mL) + PVP-VA (0.3 mg/mL), reference DDW",296%
same,FFA DPP (dissolution performance parameter),"[2]; DDW, predissolved SLP (0.2 mg/mL) + PVP-VA (0.4 mg/mL), reference DDW",345%
same,FFA DPP (dissolution performance parameter),"[2]; DDW, predissolved SLP (0.2 mg/mL) + PVP-VA (0.8 mg/mL), reference DDW",310%
same,solid residues after dissolution tests (PXRD),"[2]; DDW, predissolved SLP (0.2 mg/mL) and PVP-VA (0.8 mg/mL)",mixtures of FFA III and FFA-NIC cocrystal
same,FFA DPP (dissolution performance parameter),"[2]; DDW, predissolved SLP (0.2 mg/mL), 0-4 h, reference same powder in DDW",67%
same,NIC release from cocrystal powders,"[2]; DDW, single polymer of PEG or SLP",not complete
same,solid residues after dissolution tests (PXRD),[2]; SLP predissolved DDW,both FFA III and FFA-NIC cocrystal
same,solid residues after dissolution,"[3]; PBS pH 6.8, 37°C, after 4 h",no solid residue
same,FFA DPP,"[3]; PBS pH 6.8, powder mixture with PVP-VA (0.2 mg/mL)",11%
same,FFA DPP,"[3]; PBS pH 6.8, powder mixture with PVP-VA (0.4 mg/mL)",7%
same,incongruent constant k(t),"[3]; PBS pH 6.8, powder mixture with PVP-VA, at 60 min",> 0.94
same,FFA DPP,"[3]; PBS pH 6.8, powder mixture with SLP (0.1 mg/mL) + PVP-VA (0.4 mg/mL)",8%
same,FFA DPP,"[3]; PBS pH 6.8, powder mixture with SLP (0.2 mg/mL) + PVP-VA (0.2 mg/mL)",6%
same,FFA DPP,"[3]; PBS pH 6.8, powder mixture with SLP (0.2 mg/mL) + PVP-VA (0.4 mg/mL)",9%
same,FFA DPP,"[3]; PBS pH 6.8, powder mixture with SLP (0.2 mg/mL)",-0.1%
same,incongruent indicator k(t) (molar FFA/NIC in solution),[3]; at 5 min,0.75
same,incongruent indicator k(t) (molar FFA/NIC in solution),[3]; at the end of dissolution,0.94
